Reference: patent publication US20240246918A1, “COMPOUNDS AND COMPOSITIONS AS EIF4E INHIBITORS AND THE USES THEREOF” (Ribometrix, Inc., priority 2022, published 2024)

Tests used:
[1] = tested on: COLO 205 colorectal tumor cells; assay: Tumor cell viability inhibition assay (CellTiter-Glo 2.0, 72 hours); assay type: cell-based; settings: Homo sapiens, COLO 205, 72 h, COLO 205 cell viability
In short: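 COLO 205 cells (1500/well, RPMI-1640 + 10% FBS) exposed for 72 h to an 11-point, 4-fold dilution series; cellular ATP read by CellTiter-Glo 2.0 luminescence. Data normalized to DMSO and maximum-inhibition controls; IC50 from 4-parameter curve fit.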

human eIF4E protein = molecular target: T1, human eIF4E protein (Homo sapiens, UniProt P06730); assay: Biochemical competitive binding assay (TR-FRET competition, EDA-m7GDP-ATTO-647N probe); settings: read-out: hEIF4E TR-FRET IC50
T1 construct: purchased Novus NBP-45314
In short: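 His-tagged human eIF4E (4 nM) was preincubated with Eu-anti-His antibody (2.5 nM) and added to compound (11-point, 4-fold dilutions) for 15 min. Then 5 nM EDA-m7GDP-ATTO-647N was added for 15 min, in HEPES pH 7.5, 100 mM KCl. The 665/620 TR-FRET ratio was normalized to controls, and IC50 was taken from 4-parameter fits.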

[2] = tested on: cap-dependent translation in Flp-In-293 reporter cells; assay: Cellular cap-dependent translation inhibition assay (dual luciferase assay, DLA; Fluc/Rluc ratio, 24 hours); assay type: cell-based; settings: Homo sapiens, Flp-In-293, 24 h, dual luciferase assay, Flp-In-293 reporter cells, 24 hours, Fluc/Rluc ratio; read-out: DLA 205 IC50

T1 sequence (P06730 whole entry): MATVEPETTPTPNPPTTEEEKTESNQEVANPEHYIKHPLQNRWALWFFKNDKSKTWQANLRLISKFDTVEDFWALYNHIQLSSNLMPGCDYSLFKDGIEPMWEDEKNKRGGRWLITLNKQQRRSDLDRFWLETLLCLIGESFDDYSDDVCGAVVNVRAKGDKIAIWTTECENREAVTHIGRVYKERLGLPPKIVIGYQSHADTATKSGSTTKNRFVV

| SMILES | IC50 [1] | IC50 (human eIF4E protein) | IC50 [2] |
| --- | --- | --- | --- |
| Cc1cc(-c2cc(Cl)ccc2OCCn2c(C)nc3c(c2=O)CC(N(C)C)CC3)c2ccc(C(=O)O)n2n1 (stereo not drawn) [Compound 36, 4-[5-chloranyl-2-[2-[6-[di(methyl)amino]-2-methyl-4-oxidanylidene-5,6,7,8-tetrahydroquinazolin-3-yl]ethoxy]phenyl]-2-methyl-pyrrolo[1,2-b]pyridazine-7-carboxylic acid] | > 20 µM | < 0.1 µM | > 5 µM |
| Cc1cc(-c2cc(Cl)ccc2OCCn2c(C)nc3c(c2=O)CC(N(C)S(C)(=O)=O)CC3)c2scc(C(=O)O)c2n1 (stereo not drawn) [Compound 37] | 5 to 20 µM | < 0.1 µM | > 5 µM |
| CC(=O)N(C)C1CCc2nc(C)n(CCOc3ccc(Cl)cc3-c3cc(C)nc4c(C(=O)O)csc34)c(=O)c2C1 (stereo not drawn) [Compound 38] | > 20 µM | 0.1 to 0.5 µM | > 5 µM |
| Cc1cc(-c2cc(Cl)ccc2OCCn2c(C)nc3c(c2=O)CC(N(C)C)CC3)c2scc(C(=O)NS(C)(=O)=O)c2n1 (stereo not drawn) [Compound 39, 7-[5-chloranyl-2-[2-[6-[di(methyl)amino]-2-methyl-4-oxidanylidene-5,6,7,8-tetrahydroquinazolin-3-yl]ethoxy]phenyl]-5-methyl-N-methylsulfonyl-thieno[3,2-b]pyridine-3-carboxamide; 2,2,2-tris(fluorenyl)acetic acid] | < 5 µM | < 0.1 µM | < 1 µM |
| Cc1cc(-c2cc(Cl)ccc2OCCn2c(C)nc3c(c2=O)CC(N(C)C2CC(F)(F)C2)CC3)c2scc(C(=O)O)c2n1 (stereo not drawn) [Compound 40, 7-[2-[2-[6-[[3,3-bis(fluorenyl)cyclobutyl]-methyl-amino]-2-methyl-4-oxidanylidene-5,6,7,8-tetrahydroquinazolin-3-yl]ethoxy]-5-chloranyl-phenyl]-5-methyl-thieno[3,2-b]pyridine-3-carboxylic acid; 2,2,2-tris(fluorenyl)acetic acid] | < 5 µM | < 0.1 µM | < 1 µM |
| Cc1cc(-c2cc(Cl)ccc2OCCn2c(C)nc3c(c2=O)CC(N(C)CCOC(F)(F)F)CC3)c2scc(C(=O)O)c2n1 (stereo not drawn) [Compound 41] | < 5 µM | < 0.1 µM | < 1 µM |
| Cc1cc(-c2cc(Cl)ccc2OCCn2c(C)nc3c(c2=O)CC(N2CCCCC2)CC3)c2ccc(C(=O)O)n2n1 (stereo not drawn) [Compound 45, 4-[5-chloranyl-2-[2-[2-methyl-4-oxidanylidene-6-(1-piperidyl)-5,6,7,8-tetrahydroquinazolin-3-yl]ethoxy]phenyl]-2-methyl-pyrrolo[1,2-b]pyridazine-7-carboxylic acid] | < 5 µM | < 0.1 µM | < 1 µM |
| Cc1cc(-c2cc(Cl)ccc2OCCn2c(C)nc3c(c2=O)CC(N(C)c2ccncc2)CC3)c2scc(C(=O)O)c2n1 (stereo not drawn) [Compound 47, 7-[5-chloranyl-2-[2-[2-methyl-6-[methyl(4-pyridyl)amino]-4-oxidanylidene-5,6,7,8-tetrahydroquinazolin-3-yl]ethoxy]phenyl]-5-methyl-thieno[3,2-b]pyridine-3-carboxylic acid; 2,2,2-tris(fluorenyl)acetic acid] | > 20 µM | < 0.1 µM | > 5 µM |
| Cc1cc(-c2cc(Cl)ccc2OCCn2c(C)nc3c(c2=O)CC(N2CC(F)(F)C2)CC3)c2scc(C(=O)O)c2n1 (stereo not drawn) [Compound 49] | 5 to 20 µM | 0.1 to 0.5 µM | 1 to 5 µM |
| Cc1cc(-c2cc(Cl)ccc2OCCn2c(C)nc3c(c2=O)CC(N2CCCC(F)(F)C2)CC3)c2scc(C(=O)O)c2n1 (stereo not drawn) [Compound 50] | < 5 µM | < 0.1 µM | < 1 µM |
| Cc1cc(-c2cc(Cl)ccc2OCCn2c(C)nc3c(c2=O)CC(N2CCC(F)(F)CC2)CC3)c2scc(C(=O)NS(C)(=O)=O)c2n1 (stereo not drawn) [Compound 52] | < 5 µM | < 0.1 µM | < 1 µM |
| Cc1cc(-c2cc(Cl)ccc2OCCn2c(C)nc3c(c2=O)CC(N2CCC(F)(F)C2)CC3)c2scc(C(=O)O)c2n1 (stereo not drawn) [Compound 53] | < 5 µM | < 0.1 µM | < 1 µM |
| Cc1cc(-c2cc(Cl)ccc2OCCn2c(C)nc3c(c2=O)CC(N(C)CC(F)(F)F)CC3)c2scc(C(=O)O)c2n1 (stereo not drawn) [Compound 54] | 5 to 20 µM | < 0.1 µM | 1 to 5 µM |
| Cc1cc(-c2cc(Cl)ccc2OCCn2c(C)nc3c(c2=O)CC(N(C)CCOC(F)(F)F)CC3)c2scc(C(=O)NS(C)(=O)=O)c2n1 (stereo not drawn) [Compound 55] | < 5 µM | < 0.1 µM | < 1 µM |
| Cc1cc(-c2cc(Cl)ccc2OCCn2c(C)nc3c(c2=O)CC(N2CC(F)(F)C2)CC3)c2scc(C(=O)NS(C)(=O)=O)c2n1 (stereo not drawn) [Compound 56] | 5 to 20 µM | < 0.1 µM | 1 to 5 µM |
| Cc1cc(-c2cc(Cl)ccc2OCCn2c(C)nc3c(c2=O)CC(N(C)Cc2ccncc2F)CC3)c2scc(C(=O)O)c2n1 (stereo not drawn) [Compound 57] | < 5 µM | < 0.1 µM | < 1 µM |
| Cc1cc(-c2cc(Cl)ccc2OCCn2c(C)nc3c(c2=O)CC(N(C)CC(F)F)CC3)c2scc(C(=O)O)c2n1 (stereo not drawn) [Compound 58] | < 5 µM | < 0.1 µM | < 1 µM |
| Cc1cc(-c2cc(Cl)ccc2OCCn2c(C)nc3c(c2=O)CC(N(C)C)CC3)c2ccc(C(=O)NS(C)(=O)=O)n2n1 (stereo not drawn) [Compound 59, 4-[5-chloranyl-2-[2-[6-[di(methyl)amino]-2-methyl-4-oxidanylidene-5,6,7,8-tetrahydroquinazolin-3-yl]ethoxy]phenyl]-2-methyl-N-methylsulfonyl-pyrrolo[1,2-b]pyridazine-7-carboxamide] | < 5 µM | < 0.1 µM | < 1 µM |
| Cc1cc(-c2cc(Cl)ccc2OCCn2c(C)nc3c(c2=O)CC(N2CCC(F)(F)C2)CC3)c2scc(C(=O)NS(C)(=O)=O)c2n1 (stereo not drawn) [Compound 60] | < 5 µM | < 0.1 µM | < 1 µM |
| Cc1cc(-c2cc(Cl)ccc2OCCn2c(C)nc3c(c2=O)CC(N(C)CC(F)(F)F)CC3)c2scc(C(=O)NS(C)(=O)=O)c2n1 (stereo not drawn) [Compound 61] | < 5 µM | < 0.1 µM | < 1 µM |
| Cc1cc(-c2cc(Cl)ccc2OCCn2c(C)nc3c(c2=O)CC(N2CCCCC2)CC3)c2ccc(C(=O)NS(C)(=O)=O)n2n1 (stereo not drawn) [Compound 62, 4-[5-chloranyl-2-[2-[2-methyl-4-oxidanylidene-6-(1-piperidyl)-5,6,7,8-tetrahydroquinazolin-3-yl]ethoxy]phenyl]-2-methyl-N-methylsulfonyl-pyrrolo[1,2-b]pyridazine-7-carboxamide] | < 5 µM | < 0.1 µM | < 1 µM |
| Cc1cc(-c2cc(Cl)ccc2OCCn2c(C)nc3c(c2=O)CC(N(C)C2CC(F)(F)C2)CC3)c2scc(C(=O)NS(C)(=O)=O)c2n1 (stereo not drawn) [Compound 63] | < 5 µM | < 0.1 µM | < 1 µM |
| Cc1cc(-c2cc(Cl)ccc2OCCn2c(C)nc3c(c2=O)CC(N(C)C2CN(CC(F)(F)F)C2)CC3)c2scc(C(=O)O)c2n1 (stereo not drawn) [Compound 64, 7-[5-chloranyl-2-[2-[2-methyl-6-[methyl-[1-[2,2,2-tris(fluorenyl)ethyl]azetidin-3-yl]amino]-4-oxidanylidene-5,6,7,8-tetrahydroquinazolin-3-yl]ethoxy]phenyl]-5-methyl-thieno[3,2-b]pyridine-3-carboxylic acid; 2,2,2-tris(fluorenyl)acetic acid] | < 5 µM | < 0.1 µM | < 1 µM |
